The values below come from patent EP0363326A2, “Fungicidal amines” (SANDOZ AG, priority 1988, dated 1990).

The test system of test [1] is Pseudocercosporella herpotrichoides. The following applies: causal agent of eyespot of cereals; cited from earlier work.
The next test has as its system Fusarium culmorum. The test is described as follows: inhibition zone test, treated wheat seeds on agar containing the fungus. The test is classed as cell-based. The following applies: seed dressing, evaluated one week after placing on agar. The protocol: (§1) The efficacy against seed-borne diseases can be illustrated by the inhibition zone test: single seeds treated with a seed dressing formulation comprising the compound to be tested e.g. with the seed dressing formulation according to Example 2 (hereinafter described) are placed on agar containing the seed-borne fungus. […] The size of the inhibition zone is evaluated one week after the seed has been placed on the agar. The activity is expressed as the concentration (in g per 100 kg seed) resulting in 90 % or more growth inhibition of the fungal mycelium.

The test system of a further test is Gerlachia nivalis. The test is described as above. The test is classed as cell-based. The following applies: seed dressing, evaluated one week after placing on agar. As for the experimental part:
as §1

Test [2] deals with Pyrenophora graminea. The test is described as follows: inhibition zone test, treated barley seeds on agar containing the fungus. The test is classed as cell-based. The following applies: seed dressing, evaluated one week after placing on agar. The protocol: as §1
In a further test the test system is Ustilago nuda. Description: Outdoor pot test, spring barley seed dressing. The following applies: dosage 8 g a.i./100kg seed. Format: in vivo. The protocol: (§2) Spring barley seed naturally infested by Pyrenophora graminea are treated with a seed dressing formulation according to Example 1 and sown in pots filled with a substrate equivalent to a sandy loam in a growth chamber at 10°C with 14-17 hours daylight. The determination of the fungal control involves a visual evaluation 60 days after said dressing and sowing.
(§3) Analogous tests are run outdoors under naturally occurring wheather conditions with spring barley infected by Pyrenophora graminea and Ustilago nuda. […]

Test [3] relates to Pyrenophora graminea. The test is described as follows: Outdoor pot test, spring barley seed dressing. As to conditions: dosage 8 g a.i./100kg seed. The test is classed as in vivo. As for the experimental part:
as §2, §3

The next test concerns Pyrenophora teres. The test is described as follows: inhibition zone test, treated barley seeds on agar containing the fungus. Format: cell-based. As to conditions: seed dressing, evaluated one week after placing on agar. As for the experimental part:
as §1

Another test deals with Cochliobulus sativus. The test is described as above. Format: cell-based. The following applies: seed dressing, evaluated one week after placing on agar. As for the experimental part:
as §1

The next test concerns Septoria nodorum. The test is described as follows: inhibition zone test, treated wheat seeds on agar containing the fungus. Format: cell-based. The following applies: seed dressing, evaluated one week after placing on agar. The protocol:
as §1

In test [4] the test system is Pyrenophora graminea. The test is described as follows: Indoor pot test, spring barley seed dressing. The test is classed as in vivo. As to conditions: dosage 8 g a.i./100kg seed, growth chamber 10°C, visual evaluation 60 days after dressing and sowing. The protocol:
as §2

With `CN(C/C=C/c1ccccc1)Cc1cccc2ccccc12` [naftifine], in [1], the “fungicidal activity in in-vitro tests” value is “fungicidal activity”.
In the case of Guazatine, the “Concentration (g/100 kg Seed) providing ≧90% control” value is 4 g/100 kg Seed in the test with Fusarium culmorum and 8 g/100 kg Seed in the test on Gerlachia nivalis.
As for `CN(C/C=C/C#CC(C)(C)C)Cc1cccc2ccccc12` [CH₃, terbinafine], in test [1], the “fungicidal activity in in-vitro tests” value is recorded as “fungicidal activity”. Besides, the “Concentration (g/100 kg Seed) providing ≧90% control” value in the test on Pyrenophora graminea [2] and in the test on Gerlachia nivalis was less than 5 g/100 kg Seed each time.
For `CCCC(C)(C)C#CC=CCN(C)Cc1cccc2ccccc12` [nC₃H₇, N-(6,6-Dimethyl-2-nonen-4-inyl)-N-Methyl-1-naphthylmethylamine], the “% Control outdoors U. nuda” value with Ustilago nuda was found to be 100%. Moreover, the “% Control outdoors P. gram.” value with Pyrenophora graminea [3] was determined as 80%. The “Concentration (g/100 kg Seed) providing ≧90% control” value is 2 g/100 kg Seed in the test with Pyrenophora graminea [2]; 4 g/100 kg Seed in the test with Pyrenophora teres; 2 g/100 kg Seed in the test with Cochliobulus sativus; 8 g/100 kg Seed with Fusarium culmorum; 2 g/100 kg Seed in the test with Gerlachia nivalis; 2 g/100 kg Seed in the test with Septoria nodorum. For the same molecule, in the test with Pyrenophora graminea [4], the “% Control indoors P. gram.” value was 80-90%.
On to `C=CCOC(Cn1ccnc1)c1ccc(Cl)cc1Cl` (stereo not shown) [Standard A, Imazalil], for which the “Concentration (g/100 kg Seed) providing ≧90% control” value with Pyrenophora graminea [2] is given as 8 g/100 kg Seed; with Pyrenophora teres it was 8 g/100 kg Seed; with Cochliobulus sativus, 4 g/100 kg Seed; in the test on Septoria nodorum, 8 g/100 kg Seed.
